Laboratory results taken from the supplement of paper PMC10307832.

Columns and labels:
Assay in all cases: relative viability (nuclei count vs DMSO), 5 days (fraction); higher = more cells survive
Alisertib + Linsitinib = compound: COc1cc(Nc2ncc3c(n2)-c2ccc(Cl)cc2C(c2c(F)cccc2OC)=NC3)ccc1C(=O)O [Alisertib] + C[C@]1(O)C[C@@H](c2nc(-c3ccc4ccc(-c5ccccc5)nc4c3)c3c(N)nccn32)C1 [Linsitinib] (partner 1 µM)
In short: (§1)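 Medians of duplicate plates are given as relative viability. That measure is the nuclei count in treated wells divided by the count in vehicle wells. Counts were taken on 4× images of lung cancer cell lines in 1536-well plates, 5 days after pin-tool dosing the day after seeding with one drug alone or a fixed anchor-drug dose plus five library-drug doses (not always all listed) in √10 steps.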

Alisertib + Pemetrexed = compound: COc1cc(Nc2ncc3c(n2)-c2ccc(Cl)cc2C(c2c(F)cccc2OC)=NC3)ccc1C(=O)O [Alisertib] + Nc1nc2[nH]cc(CCc3ccc(C(=O)N[C@@H](CCC(=O)O)C(=O)O)cc3)c2c(=O)[nH]1 [Pemetrexed] (partner 0.2 µM)
In short: as §1

Alisertib + Vorinostat = compound: COc1cc(Nc2ncc3c(n2)-c2ccc(Cl)cc2C(c2c(F)cccc2OC)=NC3)ccc1C(=O)O [Alisertib] + O=C(CCCCCCC(=O)Nc1ccccc1)NO [Vorinostat] (partner 1 µM)
In short: as §1

Alisertib + Olaparib = compound: COc1cc(Nc2ncc3c(n2)-c2ccc(Cl)cc2C(c2c(F)cccc2OC)=NC3)ccc1C(=O)O [Alisertib] + O=C(c1cc(Cc2n[nH]c(=O)c3ccccc23)ccc1F)N1CCN(C(=O)C2CC2)CC1 [Olaparib] (partner 8 µM)
In short: as §1

| Cell Line | relative viability (Alisertib + Linsitinib; first compound 0.005 µM) | relative viability (Alisertib + Linsitinib; first compound 0.01581 µM) | relative viability (Alisertib + Linsitinib; first compound 0.05 µM) | relative viability (Alisertib + Linsitinib; first compound 0.1581 µM) | relative viability (Alisertib + Linsitinib; first compound 0.5 µM) | relative viability (Alisertib + Pemetrexed; first compound 0.005 µM) | relative viability (Alisertib + Pemetrexed; first compound 0.01581 µM) | relative viability (Alisertib + Pemetrexed; first compound 0.05 µM) | relative viability (Alisertib + Pemetrexed; first compound 0.1581 µM) | relative viability (Alisertib + Pemetrexed; first compound 0.5 µM) | relative viability (Alisertib + Vorinostat; first compound 0.005 µM) | relative viability (Alisertib + Vorinostat; first compound 0.01581 µM) | relative viability (Alisertib + Vorinostat; first compound 0.05 µM) | relative viability (Alisertib + Vorinostat; first compound 0.1581 µM) | relative viability (Alisertib + Vorinostat; first compound 0.5 µM) | relative viability (Alisertib + Olaparib; first compound 0.005 µM) | relative viability (Alisertib + Olaparib; first compound 0.01581 µM) | relative viability (Alisertib + Olaparib; first compound 0.05 µM) | relative viability (Alisertib + Olaparib; first compound 0.1581 µM) | relative viability (Alisertib + Olaparib; first compound 0.5 µM) |
| --- | --- | --- | --- | --- | --- | --- | --- | --- | --- | --- | --- | --- | --- | --- | --- | --- | --- | --- | --- | --- |
| LCLC-97TM1 | 0.197 | 0.185 | 0.135 | 0.114 | 0.0896 | 0.162 | 0.173 | 0.186 | 0.118 | 0.0781 | 0.524 | 0.515 | 0.135 | 0.0952 | 0.0792 | 0.332 | 0.306 | 0.102 | 0.0999 | 0.0824 |
| LCLC-103H | 1.05 | 1.03 | 1.03 | 0.235 | 0.297 | 0.497 | 0.511 | 0.417 | 0.399 | 0.347 | 0.67 | 0.561 | 0.352 | 0.323 | 0.396 | 0.598 | 0.709 | 0.356 | 0.357 | 0.353 |
| LK-2 | 0.519 | 0.454 | 0.337 | 0.206 | 0.175 | 0.286 | 0.236 | 0.188 | 0.141 | 0.148 | 0.229 | 0.326 | 0.167 | 0.176 | 0.186 | 0.648 | 0.56 | 0.294 | 0.183 | 0.109 |
| LOU-NH91 | 0.977 | 0.941 | 0.818 | 0.491 | 0.403 | 0.428 | 0.385 | 0.369 | 0.349 | 0.354 | 0.834 | 0.821 | 0.602 | 0.422 | 0.371 | 0.89 | 0.871 | 0.63 | 0.464 | 0.399 |
| LU99A | 0.532 | 0.511 | 0.193 | 0.177 | 0.168 | 0.205 | 0.193 | 0.185 | 0.161 | 0.145 | 0.467 | 0.428 | 0.177 | 0.16 | 0.187 | 0.253 | 0.223 | 0.189 | 0.151 | 0.133 |
| LXF-289 | 0.843 | 0.814 | 0.21 | 0.194 | 0.116 | 0.794 | 0.61 | 0.376 | 0.169 | 0.174 | 0.587 | 0.493 | 0.189 | 0.139 | 0.188 | 0.757 | 0.593 | 0.113 | 0.101 | 0.131 |
| NCI-H23 | 0.621 | 0.545 | 0.228 | 0.191 | 0.155 | 0.489 | 0.346 | 0.271 | 0.213 | 0.212 | 0.456 | 0.24 | 0.132 | 0.153 | 0.149 | 0.287 | 0.167 | 0.146 | 0.141 | 0.155 |
